Laboratory results as given in US10508086B2 (CANCER RESEARCH TECHNOLOGY LIMITED, priority 2014, dated 2019).

Biological target: Human Full Length PARG (Homo sapiens (Human), UniProt Q86W56)
Test: PARG in vitro enzyme assay (TR-FRET)
Type: biochemical
Conditions: read-out: PARG_EC50_ENZYME
Procedure: PARG In vitro assays were conducted in a total volume of 15 ul in a standard 384 well format. 5 ul of Human Full Length PARG (Produced internally by Astra Zeneca), used at a final reaction concentration of […], was added to 5 ul of Ribosylated PARP substrate (also produced internally by Astra Zeneca) at final reaction concentration of 4.5 nM in assay buffer (50 mM Tris pH7.4, 0.1 mg/ml BSA, 3 mM EDTA, 0.4 mM EGTA, 1 mM DTT, 0.01% Tween 20, 50 mM KCl). The reaction was incubated at room temperature for 10 minutes and then 5 ul detection reagent was added. Detection Reagent consists of 42 nM MAb Anti-6HIS XL665 (CisBio: 61 HISXLB) and 2.25 nM Streptavidin Europium Cryptate (CisBio: 610SAKLB), both at 3× working stock concentrations (final concentrations of 14 nM and 0.75 nM respectively), in a detection buffer of 50 mM Tris pH7.4, BSA at 0.1 mg/ml and KF at 100 mM. Following incubation at room temperature for 60 minutes in the dark, TR-FRET signal was measured at Ex 340 and Em 665 and Em 620. A ratio was calculated as Em665/EM620×104 for each well and used to calculate percent inhibition for test compounds.

Human Full Length PARG, sequence (Q86W56 whole entry): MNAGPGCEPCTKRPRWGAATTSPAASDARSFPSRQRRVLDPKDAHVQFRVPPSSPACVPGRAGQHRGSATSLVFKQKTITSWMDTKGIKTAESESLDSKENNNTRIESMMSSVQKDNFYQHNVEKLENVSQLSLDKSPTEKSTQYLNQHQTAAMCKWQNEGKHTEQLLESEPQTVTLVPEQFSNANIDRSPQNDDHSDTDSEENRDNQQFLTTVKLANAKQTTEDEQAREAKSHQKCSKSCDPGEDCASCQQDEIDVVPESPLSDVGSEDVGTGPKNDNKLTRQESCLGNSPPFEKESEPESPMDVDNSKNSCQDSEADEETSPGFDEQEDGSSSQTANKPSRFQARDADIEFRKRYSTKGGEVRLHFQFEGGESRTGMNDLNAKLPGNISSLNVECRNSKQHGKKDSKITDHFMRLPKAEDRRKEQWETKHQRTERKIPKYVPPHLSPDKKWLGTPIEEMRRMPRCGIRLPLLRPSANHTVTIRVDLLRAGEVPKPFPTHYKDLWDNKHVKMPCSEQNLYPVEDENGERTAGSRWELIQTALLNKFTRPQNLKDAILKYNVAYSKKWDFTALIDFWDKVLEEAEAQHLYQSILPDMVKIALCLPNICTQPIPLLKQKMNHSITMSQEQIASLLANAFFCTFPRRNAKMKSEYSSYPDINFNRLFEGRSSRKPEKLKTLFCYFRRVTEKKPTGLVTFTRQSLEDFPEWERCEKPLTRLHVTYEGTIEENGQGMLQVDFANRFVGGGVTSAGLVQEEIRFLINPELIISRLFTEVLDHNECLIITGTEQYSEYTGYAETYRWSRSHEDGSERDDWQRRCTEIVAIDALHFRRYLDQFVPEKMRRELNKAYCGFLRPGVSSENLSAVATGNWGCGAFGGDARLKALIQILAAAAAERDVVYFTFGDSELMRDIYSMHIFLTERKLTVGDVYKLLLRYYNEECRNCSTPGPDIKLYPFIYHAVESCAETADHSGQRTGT

Structure (SMILES)	EC50 [µM]
Cn1c(=O)n(Cc2c(Cl)cccc2Cl)c2ccc(S(=O)(=O)NC3(C)CC3)cc21 [Example 1]	9.41
Cn1c(=O)n(Cc2ccccc2)c2ccc(S(=O)(=O)NC3(C)CC3)cc21 [Example 3]	8.28
Cn1c(=O)n(Cc2cccnc2)c2ccc(S(=O)(=O)NC3(C)CC3)cc21 [Example 5]	6.76
Cn1c(=O)n(CC2CC2(F)F)c2ccc(S(=O)(=O)NC3(C)CC3)cc21 (stereo not shown) [Example 6]	8.32
CC(C)Cn1c(=O)n(C)c2cc(S(=O)(=O)NC3(C)CC3)ccc21 [Example 7]	9.79
Cn1c(=O)n(CC2(C)COC2)c2ccc(S(=O)(=O)NC3(C)CC3)cc21 [Example 10]	8.42
Cn1c(=O)n(CC2CCCCC2)c2ccc(S(=O)(=O)NC3(C)CC3)cc21 [Example 12]	8.29
Cn1c(=O)n(Cc2ccncc2)c2ccc(S(=O)(=O)NC3(C)CC3)cc21 [Example 13]	7.12
Cn1c(=O)n(CC(C)(C)C)c2ccc(S(=O)(=O)NC3(C)CC3)cc21 [Example 15]	6.59
C=CCn1c(=O)n(C)c2cc(S(=O)(=O)NC3(C)CC3)ccc21 [Example 18]	7.56
CC(=O)OCCn1c(=O)n(C)c2cc(S(=O)(=O)NC3(C)CC3)ccc21 [Example 22]	9.18
Cn1ccc(Cn2c(=O)n(C)c3cc(S(=O)(=O)NC4(C)CC4)ccc32)n1 [Example 23]	8.83
CN1CCN(CC(=O)N2CCc3ccc(S(=O)(=O)NC4(C)CC4)cc32)C1=O [Example 25, N-(1-Methylcyclopropyl)-1-[2-(3-methyl-2-oxo-imidazolidin-1-yl)acetyl]indoline-6-sulfonamide]	8.92
Cn1c(=O)n(-c2ccsc2)c2cc(S(=O)(=O)NC3(C)CC3)ccc21 [Example 26]	6.99
Cc1cccc(C(=O)n2c(=O)n(C)c3ccc(S(=O)(=O)NC4(C)CC4)cc32)c1 [Example 30]	9.57
CCNC(=O)n1c(=O)n(C)c2ccc(S(=O)(=O)NC3(C)CC3)cc21 [Example 32]	6.86
Cc1cccc(Cn2c(=O)n(C)c3cc(S(=O)(=O)NC4(C)CC4)ccc32)c1 [Example 33]	6.31
Cc1ccc(Cn2c(=O)n(C)c3cc(S(=O)(=O)NC4(C)CC4)ccc32)cc1 [Example 34]	6.21
COc1ccccc1Cn1c(=O)n(C)c2cc(S(=O)(=O)NC3(C)CC3)ccc21 [Example 35]	7.69
COc1cccc(Cn2c(=O)n(C)c3cc(S(=O)(=O)NC4(C)CC4)ccc32)c1 [Example 36]	6.17
Cn1c(=O)n(Cc2cccc(Cl)c2)c2ccc(S(=O)(=O)NC3(C)CC3)cc21 [Example 38]	5.71
Cn1c(=O)n(Cc2ccccc2F)c2ccc(S(=O)(=O)NC3(C)CC3)cc21 [Example 40]	6.3
Cn1c(=O)n(Cc2cccc(F)c2)c2ccc(S(=O)(=O)NC3(C)CC3)cc21 [Example 41]	5.77
Cn1c(=O)n(Cc2ccccc2C(F)(F)F)c2ccc(S(=O)(=O)NC3(C)CC3)cc21 [Example 46]	9.75
Cn1c(=O)n(Cc2c(F)cccc2F)c2ccc(S(=O)(=O)NC3(C)CC3)cc21 [Example 47]	5.72
Cn1c(=O)n(Cc2cc(Cl)cc(Cl)c2)c2ccc(S(=O)(=O)NC3(C)CC3)cc21 [Example 48]	7.83
Cn1c(=O)n(-c2ccc(C=O)s2)c2cc(S(=O)(=O)NC3(C)CC3)ccc21 [Example 54]	9.07
CNC(=O)n1c(=O)n(C)c2ccc(S(=O)(=O)NC3(C)CC3)cc21 [Example 55]	7.05
Cn1c(=O)n(C)c2cc(S(=O)(=O)NC3(C)CC3)c(F)cc21 [Example 56, 6-Fluoro-1,3-dimethyl-N-(1-methylcyclopropyl)-2-oxo-benzimidazole-5-sulfonamide]	8.3
Cn1c(=O)n(-c2ccccc2)c2ccc(S(=O)(=O)NC3(C)CC3)cc21 [Example 57]	5.63

Compounds with a lower EC50, results first:

EC50 [µM]	Structure (SMILES)
5	Cn1c(=O)n(CC2CC2)c2ccc(S(=O)(=O)NC3(C)CC3)cc21 [Example 2]
2.91	CC1(NS(=O)(=O)c2ccc3c(c2)n(-c2ccccc2)c(=O)n3CC2CC2)CC1 [Example 4]
4.51	CC1CC1Cn1c(=O)n(C)c2cc(S(=O)(=O)NC3(C)CC3)ccc21 (stereo not shown) [Example 8]
4.04	Cn1c(=O)n(CC2(C)CC2)c2ccc(S(=O)(=O)NC3(C)CC3)cc21 [Example 9]
4.67	Cn1c(=O)n(CC2CCC2)c2ccc(S(=O)(=O)NC3(C)CC3)cc21 [Example 11]
3.39	Cn1c(=O)n(CC2CCCC2)c2ccc(S(=O)(=O)NC3(C)CC3)cc21 [Example 16]
4.78	C#CCn1c(=O)n(C)c2cc(S(=O)(=O)NC3(C)CC3)ccc21 [Example 17]
5.36	Cn1c(=O)n(CCC2CC2)c2ccc(S(=O)(=O)NC3(C)CC3)cc21 [Example 19]
3.5	Cc1ccc(Cn2c(=O)n(C)c3cc(S(=O)(=O)NC4(C)CC4)ccc32)o1 [Example 20]
5.23	CC1(NS(=O)(=O)c2ccc3c(c2)N(C(=O)CN2CCNC2=O)CC3)CC1 [Example 21, N-(1-Methylcyclopropyl)-1-[2-(2-oxoimidazolidin-1-yl)acetyl]indoline-6-sulfonamide]
2.8	CC(=O)n1c(=O)n(C)c2ccc(S(=O)(=O)NC3(C)CC3)cc21 [Example 24]
0.925	Cn1c(=O)n(C(=O)c2ccccc2)c2cc(S(=O)(=O)NC3(C)CC3)ccc21 [Example 27]
0.352	Cn1c(=O)n(C(=O)C2CCCCC2)c2cc(S(=O)(=O)NC3(C)CC3)ccc21 [Example 28]
4.46	Cc1ccc(C(=O)n2c(=O)n(C)c3ccc(S(=O)(=O)NC4(C)CC4)cc32)cc1 [Example 29]
4.91	Cc1ccccc1C(=O)n1c(=O)n(C)c2ccc(S(=O)(=O)NC3(C)CC3)cc21 [Example 31]
3.15	COc1ccc(Cn2c(=O)n(C)c3cc(S(=O)(=O)NC4(C)CC4)ccc32)cc1 [Example 37]
3.74	Cn1c(=O)n(Cc2ccc(Cl)cc2)c2ccc(S(=O)(=O)NC3(C)CC3)cc21 [Example 39]
2.35	Cn1c(=O)n(Cc2ccc(F)cc2)c2ccc(S(=O)(=O)NC3(C)CC3)cc21 [Example 42]
5.25	Cn1c(=O)n(Cc2ccccc2C#N)c2ccc(S(=O)(=O)NC3(C)CC3)cc21 [Example 43]
3.35	Cn1c(=O)n(Cc2cccc(C#N)c2)c2ccc(S(=O)(=O)NC3(C)CC3)cc21 [Example 44]
3.2	Cn1c(=O)n(Cc2ccc(C#N)cc2)c2ccc(S(=O)(=O)NC3(C)CC3)cc21 [Example 45]
5.07	Cc1cc(C)cc(Cn2c(=O)n(C)c3cc(S(=O)(=O)NC4(C)CC4)ccc32)c1 [Example 49]
4.91	COc1cc(Cn2c(=O)n(C)c3cc(S(=O)(=O)NC4(C)CC4)ccc32)cc(OC)c1 [Example 50]
5.26	Cn1c(=O)n(Cc2cc(F)cc(F)c2)c2ccc(S(=O)(=O)NC3(C)CC3)cc21 [Example 51]
5.16	Cn1c(=O)n(-c2ccco2)c2cc(S(=O)(=O)NC3(C)CC3)ccc21 [Example 52]
2.86	Cn1c(=O)n(-c2nccs2)c2cc(S(=O)(=O)NC3(C)CC3)ccc21 [Example 53]
4.65	Cn1c(=O)n(Cc2ccc(C#N)c(F)c2)c2ccc(S(=O)(=O)NC3(C)CC3)cc21 [Example 58]
2.66	Cn1c(=O)n(Cc2ccc(C(N)=O)cc2)c2ccc(S(=O)(=O)NC3(C)CC3)cc21 [Example 59]
